Laboratory results from patent US9943599B2, “Therapeutic applications of calcium electroporation to effectively induce tumor necrosis” (Herlev Hospital, priority 2011, dated 2018).

Columns and labels:
[1] = system: SW780 (human bladder cancer) tumors; experiment: Fraction of necrosis after calcium electroporation, SW780 tumors; type: in vivo, NMRI-Foxn1^nu mice
Protocol: LPB, a murine sarcoma cell line, B16, a murine malignant melanoma cell line, MDA-MB231, human a breast cancer cell line, HT29, a human colon cancer cell line, and SW780, a human bladder cancer cell line were used for the in vivo experiment. The cells were tested by rapid MAP27 panel (Taconic, Hudson N.Y.) before use without signs of infection. 2×10^5 cells (B16), 8×10^5 cells (LPB), 2.5×10^6 cells (MDA-MB231), and 5×10^6 cells (HT29 and SW780) in 100 μl PBS were injected subcutaneously in the flank of NMRI-Foxn1^nu mice (Harlan, Indianapolis, Ind.) that were 9-11 weeks old. Mice were randomised at a tumor volume above 85 mm^3 and tumors were treated with injection of isotonic calcium-chloride solution (168 mM CaCI2) and electroporation (8 pulses of 1.0 kv/cm for 100 μs and a frequency of 1 Hz) using a 6 mm plate electrode and a square wave electroporator (CLINIPORATOR®, IGEA, Modena, Italy). Tumor volume was calculated as ab^2n/6, where a is the largest diameter and b is the largest diameter perpendicular to a. The injected volume was half of the tumor volume. […] The fraction of necrosis within the tumor was estimated from HE-sections by stereological point counting using a light microscope, evaluated by a pathologist, blinded with respect to treatment status.
The difference in fraction of necrosis at different time after treatment was assessed using student's t-test.

[2] = system: skin dermis and subcutis above MDA-MB231 tumor; experiment: Normal tissue reaction, skin above the tumor; type: in vivo, NMRI-Foxn1nu mice; conditions: some of the mice treated with the high concentration and volume of calcium
Protocol: MDA-MB231, a human breast cancer cell line was used for the in vivo experiments. The cells were tested by rapid MAP27 panel (Taconic, Hudson N.Y.) before use without signs of infection. Cells were maintained in vitro as described in Example 1. 2.5×10^6 cells/100 μl PBS were injected subcutaneously in the flank of NMRI-Foxn1nu mice (Harlan, Indianapolis, Ind.). Tumor pieces were transplanted twice from donor mice to the flank of nude mice that were 13-19 weeks old. HYPNORM™-DORMICUM™ (fentanyl/fluanisone/midazolam; VetaPharma, Leeds, U K and Roche, Basel, Switzerland) was used for anesthesia complemented with RIMADYL® (Carprofen) (Pfizer ApS, Ballerup, Denmark) as well as lidocaine (Region Hovedstadens Apotek, Herlev, Denmark) in the incision. […] Tumor volume was calculated as ab2n/6, where “a” is the largest diameter and “b” is the largest diameter perpendicular to “a”. […] Estimation of normal tissue damages was evaluated semiquantitatively on HE-sections by light[ ]microscopy (LEICA® DM 2000 light microscope, Leica Microsystems, Wetzlar, Germany).
The presence of inflammation in the skin dermis and subcutis was scored from 1-3 (1=minimal, 2=moderate and 3=severe). Edema in the dermis, extravasations of erythrocytes and vasculitis was noted if present, but not scored.

[Ca+2].[Cl-].[Cl-] [calcium chloride]
fraction of necrosis in tumors, course ([1]; 168 mM CaCl2, half tumor volume, electroporation, first days after treatment): progressive necrosis | tumor re-growth ([1]; 6 days after the treatment): re-growth | ulceration above the tumor [2]: ulceration above the tumor was seen
